Tests used:
[1] = molecular target: Neuronal acetylcholine receptor subunit alpha-7 (Rattus norvegicus, UniProt Q05941); test: Displacement of [3H]alpha-Bungarotoxin from alpha-7 nAChR in rat brain cortex membranes; format: cell membranes, Membrane
[2] = molecular target: Neuronal acetylcholine receptor; alpha4/beta2 (Rattus norvegicus, UniProt P09483+P12390); test: Displacement of [3H]epibatidine from alpha-4-beta-2 nAChR in rat brain cortex membrane; format: cell membranes
[3] = molecular target: T1, Adrenergic receptor alpha-2 (Rattus norvegicus, UniProt P22086+P19328+P22909); test: Displacement of [3H]RS 79948-197 from rat cortex adrenergic alpha-2 receptor
T1 sequence (P22086 whole entry): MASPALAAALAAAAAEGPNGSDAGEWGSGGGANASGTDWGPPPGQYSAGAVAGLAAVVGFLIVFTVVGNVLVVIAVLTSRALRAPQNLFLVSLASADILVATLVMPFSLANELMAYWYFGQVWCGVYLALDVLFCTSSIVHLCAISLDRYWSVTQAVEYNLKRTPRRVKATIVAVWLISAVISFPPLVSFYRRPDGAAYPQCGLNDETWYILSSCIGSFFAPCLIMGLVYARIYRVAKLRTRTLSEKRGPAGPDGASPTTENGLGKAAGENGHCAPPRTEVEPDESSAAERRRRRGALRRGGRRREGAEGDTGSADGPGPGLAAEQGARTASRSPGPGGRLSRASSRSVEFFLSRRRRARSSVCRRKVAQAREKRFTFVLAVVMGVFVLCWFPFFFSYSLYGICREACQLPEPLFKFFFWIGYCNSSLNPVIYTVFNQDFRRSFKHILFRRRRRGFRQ
T1 sequence (P19328 whole entry): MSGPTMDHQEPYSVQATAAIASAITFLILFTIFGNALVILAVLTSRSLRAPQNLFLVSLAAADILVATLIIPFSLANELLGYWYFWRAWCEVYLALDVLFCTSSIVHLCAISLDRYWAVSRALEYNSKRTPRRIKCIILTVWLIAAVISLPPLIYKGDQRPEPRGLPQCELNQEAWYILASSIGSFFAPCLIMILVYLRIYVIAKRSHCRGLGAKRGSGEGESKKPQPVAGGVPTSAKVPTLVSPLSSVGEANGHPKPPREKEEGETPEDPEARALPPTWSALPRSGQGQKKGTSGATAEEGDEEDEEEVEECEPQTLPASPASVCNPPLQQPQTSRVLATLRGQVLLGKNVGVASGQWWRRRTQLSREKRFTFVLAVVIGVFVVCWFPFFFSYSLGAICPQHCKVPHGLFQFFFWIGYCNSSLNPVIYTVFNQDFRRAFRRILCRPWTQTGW
T1 sequence (P22909 whole entry): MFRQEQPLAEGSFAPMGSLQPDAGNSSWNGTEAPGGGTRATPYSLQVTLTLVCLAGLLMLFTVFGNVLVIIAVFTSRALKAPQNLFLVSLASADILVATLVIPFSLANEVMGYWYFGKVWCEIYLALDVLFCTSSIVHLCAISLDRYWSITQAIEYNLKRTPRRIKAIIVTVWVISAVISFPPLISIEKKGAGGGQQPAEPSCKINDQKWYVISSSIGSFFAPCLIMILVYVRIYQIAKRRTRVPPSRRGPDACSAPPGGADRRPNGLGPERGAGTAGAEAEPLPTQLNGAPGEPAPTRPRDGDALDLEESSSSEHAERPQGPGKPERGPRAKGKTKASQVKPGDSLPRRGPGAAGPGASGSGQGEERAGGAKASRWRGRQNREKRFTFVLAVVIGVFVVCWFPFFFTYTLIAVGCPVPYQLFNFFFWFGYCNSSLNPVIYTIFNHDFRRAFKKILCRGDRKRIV

Chain of Neuronal acetylcholine receptor subunit alpha-7 (Q05941 whole entry): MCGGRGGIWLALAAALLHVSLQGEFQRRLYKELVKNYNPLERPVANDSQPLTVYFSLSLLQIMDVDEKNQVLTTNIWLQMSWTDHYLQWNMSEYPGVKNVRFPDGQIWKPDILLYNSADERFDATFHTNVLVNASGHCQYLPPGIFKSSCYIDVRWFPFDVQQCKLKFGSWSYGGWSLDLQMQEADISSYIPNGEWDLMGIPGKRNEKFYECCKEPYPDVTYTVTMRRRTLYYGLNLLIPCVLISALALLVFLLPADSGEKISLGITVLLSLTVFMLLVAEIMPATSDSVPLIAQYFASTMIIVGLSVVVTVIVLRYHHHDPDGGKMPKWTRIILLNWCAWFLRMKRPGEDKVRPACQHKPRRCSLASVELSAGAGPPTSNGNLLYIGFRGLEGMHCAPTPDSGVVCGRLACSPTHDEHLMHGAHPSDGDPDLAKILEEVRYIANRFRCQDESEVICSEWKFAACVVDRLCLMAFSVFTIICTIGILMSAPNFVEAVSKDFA
Chain of Neuronal acetylcholine receptor; alpha4/beta2 (P09483 whole entry): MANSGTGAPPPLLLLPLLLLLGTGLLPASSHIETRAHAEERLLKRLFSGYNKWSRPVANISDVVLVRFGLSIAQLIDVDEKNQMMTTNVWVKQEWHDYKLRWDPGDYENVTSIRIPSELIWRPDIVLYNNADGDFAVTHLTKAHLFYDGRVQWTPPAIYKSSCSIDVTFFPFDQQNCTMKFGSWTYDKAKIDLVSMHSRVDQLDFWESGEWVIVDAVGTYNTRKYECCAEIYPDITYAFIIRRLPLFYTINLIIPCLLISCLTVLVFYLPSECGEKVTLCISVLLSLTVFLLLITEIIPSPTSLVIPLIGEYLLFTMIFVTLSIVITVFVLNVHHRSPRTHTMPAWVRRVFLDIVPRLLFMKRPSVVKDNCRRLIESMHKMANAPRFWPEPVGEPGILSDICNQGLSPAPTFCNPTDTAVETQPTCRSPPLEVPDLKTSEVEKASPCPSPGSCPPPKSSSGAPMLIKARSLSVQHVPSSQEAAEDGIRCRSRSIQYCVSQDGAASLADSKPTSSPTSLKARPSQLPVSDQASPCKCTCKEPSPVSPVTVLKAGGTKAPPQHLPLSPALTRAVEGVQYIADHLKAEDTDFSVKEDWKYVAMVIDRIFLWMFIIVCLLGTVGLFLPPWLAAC
Chain of Neuronal acetylcholine receptor; alpha4/beta2 (P12390 whole entry): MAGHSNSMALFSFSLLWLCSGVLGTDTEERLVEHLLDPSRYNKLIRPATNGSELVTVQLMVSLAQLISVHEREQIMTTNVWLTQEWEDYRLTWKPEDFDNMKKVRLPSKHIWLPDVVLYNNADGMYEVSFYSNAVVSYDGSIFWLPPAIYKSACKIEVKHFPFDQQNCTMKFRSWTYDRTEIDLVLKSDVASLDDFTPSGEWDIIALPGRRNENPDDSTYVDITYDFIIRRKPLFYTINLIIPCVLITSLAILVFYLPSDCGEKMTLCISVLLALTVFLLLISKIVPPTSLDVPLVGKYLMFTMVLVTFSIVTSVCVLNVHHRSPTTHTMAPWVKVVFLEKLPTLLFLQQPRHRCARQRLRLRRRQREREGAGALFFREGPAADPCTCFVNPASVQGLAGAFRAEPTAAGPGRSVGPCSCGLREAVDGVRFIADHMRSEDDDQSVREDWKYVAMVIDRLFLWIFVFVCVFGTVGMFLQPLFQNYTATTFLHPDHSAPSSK

CN1CCC[C@@H]1[C@@H]1CNC(=O)O1
Ki [1]: 338 µM
Ki [2]: 80 µM

CN1CCC[C@H]1[C@H]1CNC(=O)O1
Ki [1]: 117 µM
Ki [2]: 62 µM

CN1CCC[C@H]1[C@@H]1COc2ccccc2O1.Cl
Ki [1]: 12 µM
Ki [2]: 0.62 µM
Ki [3]: 0.77 µM

CN1CCC[C@@H]1[C@H]1COc2ccccc2O1.Cl
Ki [1]: 45 µM
Ki [2]: 2.57 µM
Ki [3]: 0.47 µM
